How the values were obtained:
[1] = test system: Sclerotinia homoeocarpa (SCLEHO); experiment: Field assessment of Sclerotinia homoeocarpa (SCLEHO), dollar spot, on creeping bentgrass; type: in vivo
[2] = test system: Glomerella graminicola (COLLGR); experiment: Field assessment of Glomerella graminicola (COLLGR), anthracnose, on annual bluegrass; type: in vivo

SMILES: COc1ccnc(C(=O)N[C@@H](C)C(=O)O[C@@H](C)C(c2ccc(F)cc2)c2ccc(F)cc2)c1OC(C)=O [Compound I, (S)-1,1-bis(4-fluorophenyl)propan-2-yl (3-acetoxy-4-methoxypicolinoyl)-L-alaninate]
- Dollar Spot Infestation (% Visual) ([1]; 250 g ai/ha, 0 DAAA, percentage of plot infested): 2.2%
- Dollar Spot Infestation (% Visual) ([1]; 250 g ai/ha, 6 DAAC): 0.6%
- Dollar Spot Infestation (% Visual) ([1]; 250 g ai/ha, 8 DAAA): 0.8%
- Dollar Spot Infestation (% Visual) ([1]; 250 g ai/ha, 8 DAAB): 0.8%
- Dollar Spot Infestation (% Visual) ([1]; 250 g ai/ha, 13 DAAB): 1.1%
- Dollar Spot Infestation (% Visual) ([1]; 250 g ai/ha, 13 DAAC): 2.1%
- Dollar Spot Infestation (% Visual) ([1]; 250 g ai/ha, 14 DAAA): 0.7%
- Dollar Spot Infestation (% Visual) ([1]; 500 g ai/ha, 0 DAAA): 1.7%
- Dollar Spot Infestation (% Visual) ([1]; 500 g ai/ha, 6 DAAC): 0.3%
- Dollar Spot Infestation (% Visual) ([1]; 500 g ai/ha, 8 DAAA): 0.5%
- Dollar Spot Infestation (% Visual) ([1]; 500 g ai/ha, 8 DAAB): 0.5%
- Dollar Spot Infestation (% Visual) ([1]; 500 g ai/ha, 13 DAAB): 0.6%
- Dollar Spot Infestation (% Visual) ([1]; 500 g ai/ha, 13 DAAC): 0.5%
- Dollar Spot Infestation (% Visual) ([1]; 500 g ai/ha, 14 DAAA): 0.5%
- Dollar spot control compared with commercial standards (in words) ([1]; Compound I applied at 500 g ai/ha): provided better control than Eagle 20EW and was equivalent to Xzemplar Fungicide
- Dollar spot disease control (in words) ([1]; formulations of Compound I, observation period): significantly reduce dollar spot disease
- Anthracnose control compared with commercial standard (in words) ([2]; 250 and 500 g ai/ha treatments, Poa annua): equivalent to the control provided by Velista
- Anthracnose Infestation (% Visual) ([2]; 250 g ai/ha, 0 DAAA, Poa annua, percentage of plot infested): 22.1%
- Anthracnose Infestation (% Visual) ([2]; 250 g ai/ha, 8 DAAA, Poa annua): 7%
- Anthracnose Infestation (% Visual) ([2]; 250 g ai/ha, 10 DAAB, Poa annua): 22.1%
- Anthracnose Infestation (% Visual) ([2]; 250 g ai/ha, 11 DAAC, Poa annua): 11.5%
- Anthracnose Infestation (% Visual) ([2]; 250 g ai/ha, 14 DAAA, Poa annua): 7%
- Anthracnose Infestation (% Visual) ([2]; 250 g ai/ha, 17 DAAB, Poa annua): 11.5%
- Anthracnose Infestation (% Visual) ([2]; 250 g ai/ha, 17 DAAC, Poa annua): 22.1%
- Anthracnose Infestation (% Visual) ([2]; 500 g ai/ha, 0 DAAA, Poa annua): 43.2%
- Anthracnose Infestation (% Visual) ([2]; 500 g ai/ha, 8 DAAA, Poa annua): 9.2%
- Anthracnose Infestation (% Visual) ([2]; 500 g ai/ha, 10 DAAB, Poa annua): 9.2%
- Anthracnose Infestation (% Visual) ([2]; 500 g ai/ha, 11 DAAC, Poa annua): 11.5%
- Anthracnose Infestation (% Visual) ([2]; 500 g ai/ha, 14 DAAA, Poa annua): 7%
- Anthracnose Infestation (% Visual) ([2]; 500 g ai/ha, 17 DAAB, Poa annua): 11.5%
- Anthracnose Infestation (% Visual) ([2]; 500 g ai/ha, 17 DAAC, Poa annua): 11.5%
- Anthracnose disease control (in words) ([2]; formulations of Compound I, Poa annua putting greens): provided significant control of anthracnose disease

Source: patent US11191269B2, “Use of an acyclic picolinamide compound as a fungicide for fungal diseases on turfgrasses” (Dow AgroSciences LLC, priority 2017, dated 2021)
